According to US8906967B2 (priority 2007, dated 2014):
Read-outs that look alike come from different tables or passages of the source.

Test system: Clostridium perfringens ATCC 13124
Format: cell-based
Details: 37° C., culture broth

Compound | growth of Clostridium perfringens (2 ppm sesquiterpene) | growth of Clostridium perfringens (10 ppm sesquiterpene) | growth of Clostridium perfringens (1.2 ppm sesquiterpene) | growth of Clostridium perfringens (100 ppm sesquiterpene) | further results
CC(C)=CCCC(C)=CCCC(C)=CC=O [Farnesal] | + |  |  |  | 
CC(=O)OCC=C(C)CCC=C(C)CCC=C(C)C [farnesyl acetate] | − | − |  |  | 
C[C@@H]1CC[C@H]2C(C)(C)[C@H]3C[C@@]12CC[C@@]3(C)O [Cedrol] | + | − |  |  | 
C=C1C/C=C/C(C)(C)C/C=C(\C)CCC1 [β-humulene] |  |  | − |  | growth of Clostridium perfringens (0.4 ppm sesquiterpene): +
CC1=C2CC[C@@H](C)[C@H]2[C@H]2[C@@H](CC1)C2(C)C [(+) ledene] | − |  | − | − | 
C=C1CC/C=C(\C)CC[C@@H]2[C@@H]1CC2(C)C [β-caryophyllene] | − |  |  | − | growth of Clostridium perfringens (0.2 ppm sesquiterpene): +; growth of Clostridium perfringens (1 ppm sesquiterpene): −
CC1=CC[C@H]2[C@H]3[C@@H]1[C@]2(C)CC[C@H]3C(C)C [α-copaene] |  |  | − | − | growth of Clostridium perfringens (0.5 ppm sesquiterpene): +
CC(=O)CCC=C(C)CCC=C(C)CCC=C(C)C [farnesyl acetone] | − | − |  |  | 
C=CC(C)(O)CCC=C(C)CCC=C(C)C (centres unmarked) [Nerolidol] | + | − |  |  | 
C=C1[C@H]2CC[C@@H]3[C@H]2C(C)(C)CCC[C@]13C [Longifolene] | − | − | − |  | growth of Clostridium perfringens (0.3 ppm sesquiterpene): +
C=C1C=CC(C)(C)CCCC(C)=CCC1 [γ-humulene] |  |  |  |  | growth of Clostridium perfringens (0.4 ppm sesquiterpene): +
CC(C)=C1C/C=C(\C)CC/C=C(\C)CC1=O [Germacrone] |  |  |  | − | growth of Clostridium perfringens (0.5 ppm sesquiterpene): +; growth of Clostridium perfringens (6 ppm sesquiterpene): +; growth of Clostridium perfringens (30 ppm sesquiterpene): −
C=C1CC[C@@H]2[C@H]([C@@H]3[C@H](C)CC[C@H]13)C2(C)C [allo-aromadendrene] | − |  |  | − | 
C=C1CC[C@@H]2[C@H]([C@@H]3[C@H](C)CC[C@@H]13)C2(C)C [Aromadendrene] |  |  |  | − | growth of Clostridium perfringens (0.5 ppm sesquiterpene): +
C/C1=C\CC/C(C)=C/CC(C)(C)/C=C/C1 [α-humulene (α-caryophyllene)] | − | − | − |  | growth of Clostridium perfringens (0.3 ppm sesquiterpene): +; growth of Clostridium perfringens (0.4 ppm sesquiterpene): +
CC(=O)O[C@]1(C)CC[C@@]23C[C@@H]1C(C)(C)[C@@H]2CC[C@H]3C [cedryl acetate] | − | − |  |  | 
bisabolene/farnesene | − | − | − |  | growth of Clostridium perfringens (0.3 ppm sesquiterpene): +
CC(C)=CCC/C(C)=C/CC/C(C)=C/CO [trans-trans farnesol] | + | − |  |  | 
C[C@@H]1CC[C@@H]2[C@@H]1[C@H]1[C@@H](CC[C@]2(C)O)C1(C)C [(−) epiglobulol] | + | − |  | − | growth of Clostridium perfringens (0.5 ppm sesquiterpene): +
α-bisabolol | + |  |  |  | 
CC1=CC[C@@]23[C@@H]([C@@H]12)[C@H](C(C)C)CC[C@H]3C [α-cubebene] |  |  | − | − | 
cedrene-9-ol | + | + |  |  | 
C[C@@H]1CC[C@@H]2[C@H](C3=C1CC[C@H]3C)C2(C)C [(−) iso-ledene] |  |  |  | − | growth of Clostridium perfringens (0.5 ppm sesquiterpene): +
(−) globulol | + | − |  | − | growth of Clostridium perfringens (0.5 ppm sesquiterpene): +
CC1=CC[C@@]23C[C@@H]1C(C)(C)[C@@H]2CC[C@H]3C [α-cedrene] | − | − | − |  | 
C=C1CC[C@@]23C[C@@H]1C(C)(C)[C@@H]2CC[C@H]3C [β-cedrene] | − | − | − |  | 
